Test system: 945468-187-T-J2-PDC spheroids viability
Assay: Anticancer human tumor 945468-187-T-J2-PDC patient-derived rectal carcinoma cell line growth inhibition [PI3K]
Settings: spheroids with HUVEC and MSC; for IC50: curve of first compound; for viability, T/C: stronger effect = lower value
Excerpt: Combinatorial screen of targeted agents with the PI3K inhibitors inavolisib, alpelisib, duvelisib, and copanlisib in multi-cell type tumor spheroids
A high-throughput screen of multi-cell type tumor spheroids was designed to identify active combinations of targeted small molecules and PI3K pathway inhibitors. Complex spheroids include a stromal component modeled by human endothelial cells (HUVEC) and fibroblasts modeled by human mesenchymal stem cells (MSCs). The concentration ranges selected for each drug and investigational agent were based upon clinically achievable concentrations if the clinical Cmax of the agent was known.
Compounds. The drugs and investigational agents: inavolisib (NSC800729), alpelisib (NSC765974), duvelisib (NSC772469), copanlisib (NSC816437), ipatasertib (NSC767898), afuresertib (NSC778305), talazoparib (NSC767125), sapanisertib (NSC764658), selumetinib (NSC741078), tovorafenib (DAY101, NSC766906), vemurafenib (NSC761431), ravoxertinib (NSC781343), sotorasib (NSC818433), MRTX1133 (NSC 836407), abemaciclib (NSC 768073), palbociclib (NSC758247), venetoclax (NSC 766270), SY5609 (NSC837396), enzalutamide (NSC755605), and darolutamide (NSC825331), were obtained from the National Cancer Institute (NCI) Developmental Therapeutics Program Chemical Repository. The FDA-approved anticancer drug set is available from the NCI Developmental Therapeutics Program. […] The stock solutions were prepared in dimethyl sulfoxide (DMSO, Sigma-Aldrich, St. Louis, MO, cat. D2650) at 800-fold the tested concentration and stored at -70 degrees C prior to their use. All drugs and investigational agents were tested over a range starting from a high concentration at or near the clinical Cmax and decreasing in half-log increments. If the clinical Cmax for an agent had not been determined, the highest concentration tested was 10 microM.
Cell Culture. All cells were maintained in an incubator at 37 degrees C and 5% CO2 with 95% humidity. The PDC lines were cultured according to standard operating procedures established by the NCI PDMR (https://pdmr.cancer.gov/sops/default.htm). All PDCs were thawed and cultured in Matrigel-coated flasks prepared with a working solution of 1X Ham's F-12 nutrient mix, without supplementation (Invitrogen, Waltham, MA, cat. 11765054), 100 U/mL penicillin-streptomycin (Invitrogen, cat. 15140122), and 2.5% Matrigel (Corning Inc., Corning, NY, cat. 354248) for the first three passages. The 354836-022-R-J1-PDC, 475296-252-R-J1-PDC, and 997726-040-R-J2-PDC lines were cultured in 6A media, which includes advanced DMEM/F-12 (Thermo Fisher Scientific, cat. 12634028), 10 mM HEPES (Thermo Fisher Scientific, cat. 15630080), 1X GlutaMAX supplement (Thermo Fisher Scientific, cat. 35050061), 0.1 mg/mL primocin (InvivoGen, San Diego, CA, cat. ant-pm-2), 10% defined fetal bovine serum, heat inactivated (HyClone Laboratories Inc., Logan, UT, cat. SH30070.03HI), 50% L-WRN conditioned media (ATCC, cat. CRL-3276), 1.25 mM N-Acetyl-L-cysteine (Sigma-Aldrich, cat. A9165), 10 mM nicotinamide (Sigma-Aldrich, cat. N0636), 1X B-27 supplement (Thermo Fisher Scientific, cat. 17504044), 1X N-2 supplement (Thermo Fisher Scientific, cat. 17502048), and 10 microM Y-27632 dihydrochloride (Tocris Bioscience, Bristol, United Kingdom, cat. 1254). The 624824-186-R-J2-PDC line was cultured in 6C/Colon 1B media, which includes all 6A media components plus 50 ng/mL human EGF recombinant protein (Thermo Fisher Scientific, cat. PHG0311). […]
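Further: spheroids exposed to compounds for seven days before reading.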

In the case of `CNC(=O)c1ccc(N2C(=S)N(c3ccc(C#N)c(C(F)(F)F)c3)C(=O)C2(C)C)cc1F` + CC(Nc1ccc2c(c1)OCCn1cc(N3C(=O)OCC3C(F)F)nc1-2)C(N)=O, the IC50 (second compound 0.00316 µM) is reported as > 10 µM, the IC50 (second compound 0.01 µM) is reported as > 10 µM and the IC50 (second compound 0.0316 µM) is reported as > 10 µM. The IC50 (second compound 0.1 µM) was > 10 µM, the IC50 (second compound 0.316 µM) was > 10 µM and the IC50 (second compound 1 µM) was > 10 µM. For the same molecule, the viability, T/C (second compound 0.00316 µM, first compound 0.0316 µM) was 96.3%, the viability, T/C (second compound 0.00316 µM, first compound 0.1 µM) was 84.8% and the viability, T/C (second compound 0.00316 µM, first compound 0.316 µM) was 123%. The viability, T/C (second compound 0.00316 µM, first compound 1 µM) was 95%, the viability, T/C (second compound 0.00316 µM, first compound 3.16 µM) was 83.4% and the viability, T/C (second compound 0.00316 µM, first compound 10 µM) was 80.1%. It also gave a viability, T/C (second compound 0.01 µM, first compound 0.0316 µM) of 95.5%, a viability, T/C (second compound 0.01 µM, first compound 0.1 µM) of 82% and a viability, T/C (second compound 0.01 µM, first compound 0.316 µM) of 85.4%. It also gave a viability, T/C (second compound 0.01 µM, first compound 1 µM) of 103%, a viability, T/C (second compound 0.01 µM, first compound 3.16 µM) of 96.8% and a viability, T/C (second compound 0.01 µM, first compound 10 µM) of 84.4%. For the same molecule, the viability, T/C (second compound 0.0316 µM, first compound 0.0316 µM) was 93.9%, the viability, T/C (second compound 0.0316 µM, first compound 0.1 µM) was 78.2% and the viability, T/C (second compound 0.0316 µM, first compound 0.316 µM) was 102%. It also gave a viability, T/C (second compound 0.0316 µM, first compound 1 µM) of 103%, a viability, T/C (second compound 0.0316 µM, first compound 3.16 µM) of 99.4% and a viability, T/C (second compound 0.0316 µM, first compound 10 µM) of 90.3%. The viability, T/C (second compound 0.1 µM, first compound 0.0316 µM) was 103%, the viability, T/C (second compound 0.1 µM, first compound 0.1 µM) was 124% and the viability, T/C (second compound 0.1 µM, first compound 0.316 µM) was 96.4%. The viability, T/C (second compound 0.1 µM, first compound 1 µM) was 92.5%, the viability, T/C (second compound 0.1 µM, first compound 3.16 µM) was 86.5% and the viability, T/C (second compound 0.1 µM, first compound 10 µM) was 76%. The viability, T/C (second compound 0.316 µM, first compound 0.0316 µM) was 91%, the viability, T/C (second compound 0.316 µM, first compound 0.1 µM) was 95.5% and the viability, T/C (second compound 0.316 µM, first compound 0.316 µM) was 88.6%. The viability, T/C (second compound 0.316 µM, first compound 1 µM) was 88.6%, the viability, T/C (second compound 0.316 µM, first compound 3.16 µM) was 89.1% and the viability, T/C (second compound 0.316 µM, first compound 10 µM) was 71.6%. The viability, T/C (second compound 1 µM, first compound 0.0316 µM) was 84.4%, the viability, T/C (second compound 1 µM, first compound 0.1 µM) was 88.6% and the viability, T/C (second compound 1 µM, first compound 0.316 µM) was 86.7%. For the same molecule, the viability, T/C (second compound 1 µM, first compound 1 µM) was 87.4%, the viability, T/C (second compound 1 µM, first compound 3.16 µM) was 64.4% and the viability, T/C (second compound 1 µM, first compound 10 µM) was 79.6%.
